Results reported in ChEMBL document CHEMBL4196074, “Metallomics for Alzheimer's disease treatment: Use of new generation of chelators combining metal-cation binding and transport properties” (Eur J Med Chem, 2018).
Activity calls are given as the source filed them. Unless noted, the rule behind the calls is not given here.

How the values were obtained:
[1] = Metal chelating activity assessed as compound-Zn2+ complex formation by UV-vis spectrophotometric analysis
SH-SY5Y [2] = assay: Inhibition of Cu2+-mediated ROS generation in human SH-SY5Y cells expressing APPswe mutant at 1 uM after 72 hrs by DCF-DA dye-based fluorescence spectroscopic analysis; assay type: cell-based
SH-SY5Y [3] = assay: Inhibition of Fe3+-mediated ROS generation in human SH-SY5Y cells expressing APPswe mutant at 1 uM after 72 hrs by DCF-DA dye-based fluorescence spectroscopic analysis; assay type: cell-based
SH-SY5Y [4] = assay: Inhibition of Cu2+-mediated amyloid beta (1 to 42 residues) production in human SH-SY5Y cells expressing APPswe mutant at 1 uM after 72 hrs by ELISA based spectrophotometric analysis; assay type: cell-based
SH-SY5Y [5] = assay: Inhibition of Fe3+-mediated amyloid beta (1 to 42 residues) production in human SH-SY5Y cells expressing APPswe mutant at 1 uM after 72 hrs by ELISA based spectrophotometric analysis; assay type: cell-based
SH-SY5Y [6] = assay: Inhibition of Zn2+-mediated ROS generation in human SH-SY5Y cells expressing APPswe mutant at 1 uM after 72 hrs by DCF-DA dye-based fluorescence spectroscopic analysis; assay type: cell-based
SH-SY5Y [7] = assay: Antiproliferative activity against human SH-SY5Y cells at 1 uM after 24 to 72 hrs by WST1 assay; assay type: cell-based
[8] = Metal chelating activity assessed as compound-Cu2+ complex formation by UV-vis spectrophotometric analysis
[9] = target: Acetylcholinesterase (Homo sapiens) (UniProt P22303); assay: Inhibition of acetylcholinesterase (unknown origin) at 1 uM using acetylthiocholine chloride as substrate measured for 5 to 40 mins
SH-SY5Y [10] = assay: Neuroprotective activity against amyloid beta (1 to 42 residues) induced cell death in human SH-SY5Y cells expressing APPswe mutant at 1 uM after 48 hrs by WST1 assay; assay type: functional, cell-based
[11] = Metal chelating activity assessed as compound-Fe3+ complex formation by UV-vis spectrophotometric analysis
SH-SY5Y [12] = assay: Inhibition of Zn2+-mediated amyloid beta (1 to 42 residues) production in human SH-SY5Y cells expressing APPswe mutant at 1 uM after 72 hrs by ELISA based spectrophotometric analysis; assay type: cell-based
[13] = Effective permeability of the compound at 10^-5 mol/L after 5 hrs by UV-based PAMPA; assay type: ADME; conditions: read-out: Peff
SH-SY5Y [14] = assay: Inhibition of Cu2+-induced caspase-3 activity in human SH-SY5Y cells expressing APPswe mutant at 1 uM after 72 hrs by AcDEVD substrate-based spectrophotometric analysis; assay type: cell-based
SH-SY5Y [15] = assay: Inhibition of Cu2+-induced toxicity in human SH-SY5Y cells expressing APPswe mutant assessed as increase in cell viability at 1 uM after 72 hrs by WST1 assay; assay type: cell-based
SH-SY5Y [16] = assay: Antiproliferative activity against human SH-SY5Y cells at 1 uM after 48 hrs by WST1 assay; assay type: cell-based

Chain of Acetylcholinesterase (Homo sapiens) (P22303 whole entry, the tested form may be a part): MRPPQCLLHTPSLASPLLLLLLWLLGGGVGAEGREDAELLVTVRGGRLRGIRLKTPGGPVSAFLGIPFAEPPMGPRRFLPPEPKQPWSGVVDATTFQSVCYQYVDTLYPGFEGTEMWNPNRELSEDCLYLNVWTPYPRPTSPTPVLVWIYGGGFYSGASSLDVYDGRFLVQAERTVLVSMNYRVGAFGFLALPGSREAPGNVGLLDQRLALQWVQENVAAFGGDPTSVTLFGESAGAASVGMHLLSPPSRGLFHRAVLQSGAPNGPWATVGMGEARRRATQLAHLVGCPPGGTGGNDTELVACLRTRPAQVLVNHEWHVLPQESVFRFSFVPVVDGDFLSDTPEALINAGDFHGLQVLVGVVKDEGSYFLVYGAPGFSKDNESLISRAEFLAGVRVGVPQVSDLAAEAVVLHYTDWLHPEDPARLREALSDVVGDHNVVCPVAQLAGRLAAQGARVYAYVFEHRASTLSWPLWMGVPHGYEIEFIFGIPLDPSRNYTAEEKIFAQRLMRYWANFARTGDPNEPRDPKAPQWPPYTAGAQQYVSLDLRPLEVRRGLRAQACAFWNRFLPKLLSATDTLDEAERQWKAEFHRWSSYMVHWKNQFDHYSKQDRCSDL

Compound	Activity [1]	inhibition (SH-SY5Y [2])	inhibition (SH-SY5Y [3])	inhibition (SH-SY5Y [4])	inhibition (SH-SY5Y [5])	inhibition (SH-SY5Y [6])	Activity (SH-SY5Y [7])	Activity [8]	inhibition [9]	Activity (SH-SY5Y [10])	Activity [11]	inhibition (SH-SY5Y [12])	Papp at 5 h, 10 µM [13]	inhibition (SH-SY5Y [14])	inhibition (SH-SY5Y [15])	Activity (SH-SY5Y [16])
COc1cccc(/C=N/NC(=O)c2ccc(NC(=O)CC[C@@H](C)[C@H]3CC[C@H]4[C@@H]5[C@H](O)C[C@@H]6C[C@H](O)CC[C@]6(C)[C@H]5C[C@H](O)[C@]34C)cc2)c1O (stereo in doubt)	Active	inactive	inactive	inactive	inactive	inactive	Non-Toxic	Active	inactive	inactive	Active	inactive	–	–	–	–
C[C@H](CCC(=O)Nc1ccc(C(=O)N/N=C/c2ccc(C(C)(C)C)cc2O)cc1)[C@H]1CC[C@H]2[C@@H]3[C@H](O)C[C@@H]4C[C@H](O)CC[C@]4(C)[C@H]3C[C@H](O)[C@]12C (stereo in doubt)	Active	inactive	inactive	inactive	inactive	inactive	Non-Toxic	Active	inactive	inactive	Active	inactive	–	–	–	–
COc1ccc(Nc2c(N/N=C/c3c(CO)cnc(C)c3O)c(=O)c2=O)cc1	inactive	inactive	inactive	inactive	inactive	–	Non-Toxic	Active	inactive	inactive	Active	–	1.6 ×10⁻⁶ cm/s	–	–	–
C[C@H](CCC(=O)Nc1ccc(C(=O)NN=C(c2ccccn2)c2ccccn2)cc1)[C@H]1CC[C@H]2[C@@H]3[C@H](O)C[C@@H]4C[C@H](O)CC[C@]4(C)[C@H]3C[C@H](O)[C@]12C	inactive	inactive	inactive	inactive	inactive	–	Non-Toxic	Active	inactive	inactive	Active	–	–	–	–	–
C[C@H](CCC(=O)Nc1ccc(C(=O)N/N=C/c2ccc3ccccc3n2)cc1)[C@H]1CC[C@H]2[C@@H]3[C@H](O)C[C@@H]4C[C@H](O)CC[C@]4(C)[C@H]3C[C@H](O)[C@]12C (stereo in doubt)	Active	inactive	inactive	inactive	inactive	inactive	Non-Toxic	Active	inactive	inactive	Active	inactive	–	–	–	–
COc1ccc(Nc2c(N/N=C/c3cccc(OC)c3O)c(=O)c2=O)cc1	inactive	inactive	inactive	inactive	inactive	–	Non-Toxic	Active	inactive	inactive	Active	–	–	–	–	–
COc1ccc(Nc2c(N/N=C/c3ccc4ccccc4n3)c(=O)c2=O)cc1	inactive	inactive	inactive	inactive	inactive	–	Non-Toxic	Active	inactive	inactive	Active	–	–	–	–	–
CCN1/C(=C/c2c(N/N=C/c3cccc(OC)c3O)c(=O)c2=O)Sc2ccccc21	inactive	inactive	inactive	inactive	inactive	–	Non-Toxic	Active	inactive	inactive	Active	–	–	–	–	–
COc1cccc(/C=N/NC(=O)CC[C@@H](C)[C@H]2CC[C@H]3[C@@H]4[C@H](O)C[C@@H]5C[C@H](O)CC[C@]5(C)[C@H]4C[C@H](O)[C@]23C)c1O	inactive	–	–	inactive	–	–	Non-Toxic	Active	inactive	Active	inactive	–	–	Active	Active	–
CCN1/C(=C/c2c(N/N=C/c3cc(C(C)(C)C)ccc3O)c(=O)c2=O)Sc2ccccc21	inactive	inactive	inactive	inactive	inactive	–	Non-Toxic	Active	inactive	inactive	Active	–	–	–	–	–
COc1ccc(Nc2c(N/N=C/c3ccc(C(C)(C)C)cc3O)c(=O)c2=O)cc1	inactive	inactive	inactive	inactive	inactive	–	Non-Toxic	Active	inactive	inactive	Active	–	–	–	–	–
CCN1/C(=C/c2c(N/N=C/c3ccc4ccccc4n3)c(=O)c2=O)Sc2ccccc21	Active	inactive	inactive	inactive	inactive	inactive	Non-Toxic	Active	inactive	inactive	Active	inactive	–	–	–	–
c1ccc(C(=NNc2nncc3ccccc23)c2ccccn2)nc1	Active	–	–	inactive	inactive	–	–	Active	–	inactive	Active	inactive	–	–	–	Toxic
Cc1ncc(CO)c(/C=N/NC(=O)c2ccc(NC(=O)CC[C@@H](C)[C@H]3CC[C@H]4[C@@H]5[C@H](O)C[C@@H]6C[C@H](O)CC[C@]6(C)[C@H]5C[C@H](O)[C@]34C)cc2)c1O (stereo in doubt)	Active	inactive	inactive	inactive	inactive	inactive	Non-Toxic	Active	inactive	inactive	Active	inactive	2.2 ×10⁻⁶ cm/s	–	–	–
COc1cccc(/C=N/Nc2nncc3ccccc23)c1O	Active	–	–	inactive	inactive	–	–	Active	–	inactive	Active	inactive	–	–	–	Toxic
Oc1c(I)cc(Cl)c2cccnc12	–	–	–	Active	Active	–	–	–	–	–	–	Active	–	–	–	–
CC(C)(C)c1ccc(O)c(/C=N/Nc2nncc3ccccc23)c1	Active	–	–	inactive	inactive	–	–	Active	–	inactive	Active	inactive	–	–	–	Toxic
C(=N\Nc1nncc2ccccc12)/c1ccc2ccccc2n1	inactive	–	–	inactive	–	–	–	Active	–	inactive	inactive	–	–	–	–	Toxic
Cc1ncc(CO)c(/C=N/Nc2nncc3ccccc23)c1O	inactive	–	–	inactive	inactive	–	–	Active	–	inactive	Active	–	7.8 ×10⁻⁶ cm/s	–	–	Toxic
CCN1/C(=C/c2c(N/N=C/c3c(CO)cnc(C)c3O)c(=O)c2=O)Sc2ccccc21	inactive	inactive	inactive	inactive	inactive	–	Non-Toxic	Active	inactive	inactive	Active	–	2.8 ×10⁻⁶ cm/s	–	–	–
